Source: the supplement of paper PMC10307832

What was measured:
Assay in all cases: relative viability (nuclei count vs DMSO), 5 days (fraction); higher = more cells survive
[1] = compound: Cn1cc(-c2cnn3c(N)c(Br)c([C@@H]4CCCNC4)nc23)cn1
Method in brief: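 A plate was accepted only when its control CV was below 25% and the cells had doubled at least once. Viability is defined from nuclear counts as treated wells divided by vehicle wells, with the median taken across plates. That median covers lung cancer cell lines grown in 1536-well plates, dosed by pinning at five √10-spaced library-drug concentrations, and counted in MetaXpress from 4× Hoechst images after 5 days.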

[2] = compound: Cn1cc(-c2cnn3c(N)c(Br)c([C@@H]4CCCNC4)nc23)cn1 + CC(=O)c1c(C)c2cnc(Nc3ccc(N4CCNCC4)cn3)nc2n(C2CCCC2)c1=O [Palbociclib] (partner 0.5 µM)
Method in brief: (§1)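 A single step with final 0.05% Triton X-100, 1% formaldehyde and 1 ug/ml Hoechst fixed the cells and stained nuclei 5 days after treatment. Lung cancer cell lines in 1536-well plates had been treated by pin tool the day after seeding with one drug alone or a fixed anchor-drug dose plus five library-drug doses (not always all listed) in √10 steps, and nuclei were counted on 4× images. Relative viability is the ratio of nuclei in treated wells to nuclei in vehicle wells, taken as the median of duplicate plates.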

[3] = compound: Cn1cc(-c2cnn3c(N)c(Br)c([C@@H]4CCCNC4)nc23)cn1 + COc1cc2c(Oc3ccc(NC(=O)C4(C(=O)Nc5ccc(F)cc5)CC4)cc3F)ccnc2cc1OCCCN1CCOCC1 [Foretinib] (partner 0.25 µM)
Method in brief: as §1

[4] = compound: Cn1cc(-c2cnn3c(N)c(Br)c([C@@H]4CCCNC4)nc23)cn1 + COc1cccc2cc(-c3nc([C@H]4CC[C@H](C(=O)O)CC4)n4ncnc(N)c34)[nH]c12 [OSI-027] (partner 0.5 µM)
Method in brief: as §1

Cell Line	relative viability ([1]; 0.05 µM)	relative viability ([1]; 0.1581 µM)	relative viability ([1]; 0.5 µM)	relative viability ([1]; 1.581 µM)	relative viability ([1]; 5 µM)	relative viability ([2]; first compound 0.05 µM)	relative viability ([2]; first compound 0.1581 µM)	relative viability ([2]; first compound 0.5 µM)	relative viability ([2]; first compound 1.581 µM)	relative viability ([2]; first compound 5 µM)	relative viability ([3]; first compound 0.05 µM)	relative viability ([3]; first compound 0.1581 µM)	relative viability ([3]; first compound 0.5 µM)	relative viability ([3]; first compound 1.581 µM)	relative viability ([3]; first compound 5 µM)	relative viability ([4]; first compound 0.05 µM)	relative viability ([4]; first compound 0.1581 µM)	relative viability ([4]; first compound 0.5 µM)	relative viability ([4]; first compound 1.581 µM)	relative viability ([4]; first compound 5 µM)
NCI-H1734	0.916	1.1	0.963	0.78	0.793	0.387	0.347	0.317	0.323	0.295	0.918	1.01	0.908	0.799	0.694	0.59	0.581	0.563	0.54	0.362
NCI-H1755	1.07	1.06	1	0.887	0.882	0.467	0.494	0.459	0.449	0.425	0.997	0.943	0.91	0.95	0.821	0.74	0.803	0.715	0.693	0.587
NCI-H1793	1.07	1.12	0.927	0.91	0.786	0.349	0.281	0.32	0.301	0.31	0.71	0.806	0.63	0.683	0.518	0.286	0.282	0.324	0.309	0.304
NCI-H1915	0.984	0.998	0.971	0.868	0.969	0.591	0.562	0.522	0.508	0.543	1.18	1.15	1.09	1.15	1.09	0.646	0.631	0.566	0.543	0.561
NCI-H1944	0.947	1.07	0.929	0.713	0.481	0.31	0.343	0.282	0.261	0.261	0.895	0.953	0.834	0.799	0.689	0.427	0.454	0.39	0.349	0.278
NCI-H1975	1.03	0.922	0.908	0.803	0.847	0.654	0.58	0.476	0.449	0.27	0.965	0.995	0.738	0.807	0.884	0.895	0.72	0.706	0.554	0.654
NCI-H1993	0.846	0.942	0.955	0.716	0.794	0.645	0.704	0.584	0.564	0.471	0.747	0.806	0.483	0.667	0.657	0.603	0.551	0.389	0.55	0.54
NCI-H2009	1.03	1.05	0.981	0.931	0.858	0.237	0.177	0.185	0.18	0.113	1.24	1.32	1.05	1.16	1.14	0.681	0.709	0.534	0.515	0.422
NCI-H2023	0.982	0.89	0.705	0.304	0.167	0.341	0.335	0.191	0.18	0.128	0.785	0.604	0.688	0.201	0.178	0.438	0.342	0.269	0.159	0.13
NCI-H2085	0.996	1.12	1.04	0.932	0.853	0.46	0.521	0.51	0.471	0.385	0.917	0.944	0.986	0.894	0.625	0.809	0.954	0.78	0.652	0.431
NCI-H2087	1.15	1.31	1.02	0.948	0.898	0.222	0.292	0.235	0.241	0.177	1.18	1.22	0.989	1.32	1	0.498	0.696	0.641	0.454	0.503
NCI-H2126	0.986	1.07	1	0.899	0.95	0.338	0.332	0.363	0.347	0.408	1.2	1.3	1.11	1.02	1.53	0.715	0.744	0.74	0.673	0.672
NCI-H2170	0.991	1.03	0.93	1.01	1.07	0.402	0.407	0.366	0.345	0.397	1.02	0.934	0.963	1.02	1.1	0.759	0.801	0.687	0.649	0.653
NCI-H2228	1.08	1.1	0.927	0.6	0.554	1.03	0.872	0.541	0.393	0.252	0.747	0.942	0.671	0.738	0.433	0.689	0.674	0.592	0.458	0.315
NCI-H2342	0.974	1.23	1.05	0.947	0.91	0.531	0.55	0.446	0.56	0.507	1.13	1.19	1.09	0.92	1.07	0.52	0.632	0.585	0.526	0.593
